# Results reported in the METLIN SMRT retention time set (Domingo-Almenara et al. 2019).
# Experiment: gradient 5% acetonitrile 3 min, to 50% in 2 min, to 85% in 15 min, held 3 min, 100 µL/min
# Conditions: column: Zorbax Extend-C18 2.1 x 50 mm; eluents: water / acetonitrile, 0.1% formic acid
# Procedure, shortened: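 In both positive and negative ionization mode, a quadrupole time-of-flight mass spectrometer coupled to HPLC analyzed pure standards run in mixtures of ~100 molecules. The Zorbax Extend-C18 column (2.1 × 50 mm, 1.8 μm) was operated at 100 μL/min with water and acetonitrile, each containing 0.1% formic acid. The dead volume was 40 μL and the dwell volume 900 μL. Retention time came from adduct peaks that were computationally picked and individually inspected by hand.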
row,Compound,RP-LC retention time
1,O=c1ccc(-c2ccccc2)nn1CCc1nc(-c2cccc(Br)c2)no1,1090 s
2,CC1CN(C(=O)Cn2cc(SCC(=O)N3CCCCCC3)c3ccccc32)CC(C)O1 (configuration not stated),889 s
3,CCOC(=O)c1cccc(NC(=O)c2cnc(-c3ccc(C)cc3)nc2-c2ccncc2)c1,1050 s
4,O=S(=O)(c1ccc2nc(N3CCN(c4ccccc4)CC3)ccc2c1)N1CCCC1,921 s
5,COc1cccc(-c2nnc(Cc3nc(-c4ccc(SC)cc4)no3)o2)c1,1050 s
6,COCCNS(=O)(=O)c1cc(-c2cc(C(F)(F)F)on2)sc1C,982 s
7,CCC1CCCCN1C(=O)c1cnc2nc(C)ccc2c1Nc1ccc(OC)c(OC)c1 (configuration not stated),648 s
8,CCN(CC)c1ncc2c(n1)CCC(C(=O)NCc1ccc(F)cc1Cl)C2 (configuration not stated),731 s
9,O=S1(=O)C[C@H](N2CCN(c3cccc(Cl)c3)CC2)[C@@H](S(=O)(=O)c2ccc(F)cc2)C1,1040 s
10,CCc1nnc(C2CN(C)CC23CCN(S(=O)(=O)c2ccccc2C)CC3)o1 (configuration not stated),627 s
11,CCCN1C(=O)c2cccnc2Sc2cc(C(=O)N3CCC(C)CC3)ccc21,856 s
12,c1cc(CN2CCCCC2c2nncn2CC2CC2)cs1 (configuration not stated),559 s
13,COC(=O)c1cc(-c2c[nH]cc2C(=O)OCc2ccccc2)cn1S(=O)(=O)c1ccc(C)cc1,1060 s
14,COc1ccc(-c2noc(C3CCCN3C(=O)c3ccco3)n2)cc1OC (configuration not stated),780 s
15,CCc1ccc(NC(=O)N2CCC(c3nc4cccnc4n3C)C2)cc1 (configuration not stated),711 s
16,Cc1ccc(Cn2c(=O)c(SCC(=O)NCC3CCCO3)nc3ccccc32)cc1 (configuration not stated),889 s
17,C=C(C)C(=O)Nc1ccc(NC(C)C)cc1,629 s
18,O=c1c2cc(-c3ccccc3)nn2ccn1Cc1noc(CN2CCCCCCC2)n1,705 s
19,O=c1ccn(-c2cccc(F)c2)nc1-c1nc(-c2ccc(F)c(Cl)c2)no1,984 s
20,Cc1ccnc(N2CCC(C(=O)NCCSCc3ccco3)CC2)n1,680 s
21,CCOC(=O)c1ccc(NC(=O)C2CCN(S(=O)(=O)c3cn(C(C)C)cn3)CC2)cc1,789 s
22,CCc1ccc(CN2C(=O)CN(S(C)(=O)=O)CC2(C)C(=O)NC2CCCCCCC2)cc1 (configuration not stated),1040 s
23,Cc1nc(-c2ccc3c(c2)CCN3C(=O)C2COc3ccccc3O2)cs1 (configuration not stated),1020 s

row,Compound,RP-LC retention time
1,CN(C(=O)c1ccc2c(c1)OCO2)C1CCc2nn(CC3CC3)c(=O)n2CC1 (configuration not stated),670 s
2,Cc1c(NC(=O)c2cccc3c2-c2ccccc2C3=O)c(=O)n(-c2ccccc2)n1C,658 s
3,Cn1cc(S(=O)(=O)N2CCCC2)cc1C(=O)N1CCn2c1nc1ccccc12,652 s
4,CN(C)C(=O)c1cc2c(s1)CCC(C(=O)NC1CCCC1)C2 (configuration not stated),696 s
5,CCn1cc(S(=O)(=O)Nc2ccccc2OC)c2cccnc21,831 s
6,Cc1ccc2c(=O)c(C(=O)N3CCC(C)CC3)cn(CC(=O)NC3CCCCC3)c2n1,762 s
7,Cc1cccc(-c2nc(N)n(C(=O)C(C)(C)C)n2)c1,1090 s
8,CN1C(=O)COc2ccc(-c3csc(NC(=O)c4ccc(Cl)cc4)n3)cc21,1010 s
9,Cc1nc2c(sc3nc(-c4ccccc4)ccc32)c(=O)n1CC(=O)NCc1ccc2c(c1)OCO2,985 s
10,CC1CCN(C(=O)C2CCN(S(C)(=O)=O)c3ccccc3O2)CC1 (configuration not stated),802 s
11,COc1cccc(-n2cc(C(=O)O)nn2)c1,682 s
12,O=C(c1ccc2c(c1)OCO2)N1CCN(c2cc(-c3cccs3)[nH]n2)CC1,732 s
13,COc1ccc(C)cc1NC(=O)Cn1c(N)nc(C)cc1=O,618 s
14,O=C1C2N=NN(c3cccc(F)c3)C2C(=O)N1c1ccccc1 (configuration not stated),925 s
15,COc1ccc(CN(Cc2ccccc2)Cc2cc(=O)n3ccccc3n2)cc1,666 s
16,O=C(O)/C=C/C(=O)N1Cc2cc3ccccc3nc2C1,681 s
17,O=C(NC1CCCC1)c1ccc2ccnc(N3CCN(c4ccc(Cl)cc4)CC3)c2c1,890 s
18,CCN(C(C)=O)c1nc(-c2ccc(C3CCCCC3)cc2)cs1,848 s
19,COc1cc(NC(=O)NCC(c2cccn2C)N2CCOCC2)cc(OC)c1 (configuration not stated),563 s
20,O=C(Cn1nc2c(SC3CCCCC3)nccn2c1=O)N1CCN(c2ccc(F)cc2)CC1,1080 s
21,Cc1ccc(C(=O)N2CCC3(CC2)N=C(c2ccccc2)NO3)s1,810 s
22,CN(CCc1noc(-c2ccc(C(=O)NC3CCCC3)cc2)n1)C(=O)c1ccccc1F,839 s
23,CCc1cccc(C)c1Nc1c(-c2ccc(N3CCOCC3)cc2)nc2ncccn12,806 s

row,Compound,RP-LC retention time
1,CCN(CCN(C)C)c1ccc(C(=O)O)cc1NS(=O)(=O)c1cc(F)ccc1F,611 s
2,COC(=O)c1cccc(NC(=O)NC2CCN(c3ccc(C)c(C)c3)C2=O)c1 (configuration not stated),847 s
3,Cc1ccc2nc(-c3cccc(F)c3)cc(C(N)=O)c2c1,880 s
4,Cc1cc(C)cc(N2CCC(NC(=O)c3ccc(Br)o3)C2=O)c1 (configuration not stated),894 s
5,Nc1cc(C2CCN(S(=O)(=O)c3cccc(F)c3)CC2)no1,755 s
6,Cc1nn(-c2ccc(N3CCOCC3)nn2)c(C)c1CCC(=O)NCc1ccco1,633 s
7,Fc1ccccc1-c1nc2ccc(Cl)cn2c1Nc1ccc(Cl)cc1,909 s
8,CCCNC(=O)C1CCCN(c2nc3ncn(CC(=O)NCc4cccs4)c(=O)c3s2)C1 (configuration not stated),657 s
9,COc1ccc(N2CC(c3nc(-c4cccc(OC)c4OC)no3)CC2=O)cc1 (configuration not stated),870 s
10,CCCC(=O)Nc1ccc(-n2cnc(C(=O)N3CCN(c4ccccc4F)CC3)c2)nc1,788 s
11,COc1cccc(-n2cc(C(=O)O)c3ccccc3c2=O)c1,760 s
12,O=C(c1ccc(-c2cccnc2)nc1)N1CCN(c2ccccc2F)CC1,688 s
13,COc1ccc(C)cc1NC(=O)C1N(C(C)C)C(=O)C12CCCC2 (configuration not stated),844 s
14,CCn1cnc(S(=O)(=O)N2CCCC(C(=O)Nc3ccc(F)cc3F)C2)c1 (configuration not stated),742 s
15,CCOc1ccc(CCNc2nc(-c3ccc(OC)c(OC)c3)no2)cc1,967 s
16,Cc1nc(-c2csc(S(=O)(=O)N3CCCC(C(=O)Nc4cccc(Cl)c4)C3)c2)no1 (configuration not stated),1040 s
17,CC(C)CCNC(=O)c1ccc2c(c1)nc1n2CCN(C2CCCCC2)C1=O,815 s
18,Cc1ccc(C(=O)NC2CCCCCCC2)cc1NC(=O)C1=CSCCO1,949 s
19,CC(C)C(=O)NCc1csc(C2CCCN(C(=O)C3CCC3)C2)n1 (configuration not stated),694 s
20,CC(C)CC(NC(=O)c1ccc2c(c1)OCO2)C(=O)Nc1nc2ccccc2[nH]1 (configuration not stated),710 s
21,Cc1cccc(N2CCN(C(=O)C3CCN(S(=O)(=O)c4cn(C)c(C)n4)CC3)CC2C)c1 (configuration not stated),667 s
